Test results: patent publication US9937235B2, “Lipidated peptides as anti-obesity agents” (USTAV ORGANICKE CHEMIE A BIOCHEMIE AKADEMIE VED CR, V.V.I, priority 2012, dated 2018)
Where a SMILES comes first, the peptide text is derived from it. The star is where a group is joined. Myristoyl = CCCCCCCCCCCCCC(=O)*; Decanoyl = CCCCCCCCCC(=O)*

Legend:
[1] = test system: fasted C57BL/6 mice; experiment: Food intake in fasted mice after SC administration; type: in vivo, mouse; conditions: fasted C57BL/6 mice, 5 mg/kg SC, 45 min
How it was run: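 Male C57BL/6 mice, food-deprived 17 h, received saline, PrRP or lipidated analogs either SC at 1-10 mg/kg or ICV into the third ventricle at 4 nmol/mouse.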

[2] = molecular target: T1, human PrRP receptor, GPR10 (Homo sapiens, UniProt P49683); experiment: Competitive binding to CHO cells with transfected human GPR10; conditions: CHO cells with transfected human GPR10, human ^125I—PrRP31
T1 construct: host or cells: CHO cells
T1 sequence (P49683 1-370): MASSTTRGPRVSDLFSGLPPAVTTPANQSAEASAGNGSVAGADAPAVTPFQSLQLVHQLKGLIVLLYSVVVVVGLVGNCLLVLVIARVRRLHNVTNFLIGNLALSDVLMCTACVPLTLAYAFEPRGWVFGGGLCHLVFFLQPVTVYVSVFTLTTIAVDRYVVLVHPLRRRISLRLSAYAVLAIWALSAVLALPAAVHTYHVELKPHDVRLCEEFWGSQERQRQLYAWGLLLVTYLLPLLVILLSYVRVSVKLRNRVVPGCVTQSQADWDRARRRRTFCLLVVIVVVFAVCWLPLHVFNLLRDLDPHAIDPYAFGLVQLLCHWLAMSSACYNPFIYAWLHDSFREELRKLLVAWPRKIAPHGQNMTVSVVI
Method: Competitive binding experiments were performed according to Motulsky and Neubig (Motulsky, A., et al., “Analyzing radioligand binding data,” Curr Protoc Neurosci, Chapter 7, Unit 7.5, 2002).
CHO cells with transfected human PrRP receptor, GPR10 (Perkin Elmer, USA) were grown on 24-well plates coated with polyethyleneimine. The cells were grown to the optimal density of 40-80 thousand cells per well. The following agents were used for the experiment: binding buffer (25 mmol·l^−1 Tris, pH 7.4; 118 mmol·l^−1 NaCl, 10 mmol·l^−1 MgCl2, 1 mmol·l^−1 CaCl2, 5.5 mmol·l^−1 glucose, 0.5 mg/ml BSA), unlabelled analogs of PrRP of final concentration within 10^−11 to 10^−4 mol·l^−1, and human ^125I—PrRP31 of final concentration of 5×10^−11 mol·l^−1.
Plates were incubated for 60 minutes at room temperature. After incubation, the cells were solubilized in 0.1 mol/l solution of NaOH and the radioactivity bound to the cells was counted using a γ-counter. The experiments were performed in duplicate and repeated at least three times.
For evaluation of competitive binding experiments, the program Graph Pad Prism Software (San Diego, Calif., USA) was used. A method of nonlinear regression assuming one-site binding was used.

[3] = test system: DIO C57BL/6 male mice; experiment: 14-day SC administration in diet-induced obese (DIO) mice; type: in vivo, mouse
Method: Inbred C57BL/6 male mice (AnLab, Prague, Czech Republic) were housed at a temperature of 23° C. under a daily cycle of 12 hours light and dark (light from 6:00 a.m.) with free access to water and food pellets (St-1, Mlýn Kocanda, Jesenice, Czech Republic).
At 8 weeks of age, mice were divided into a standard (St) diet-fed group (the energy content of the St-1 diet was 3.4 kcal/g, containing 25, 9, and 66% of calories from protein, fat, and carbohydrate, respectively (St-1, Mlýn Kocanda, Jesenice, Czech Republic)) and a high fat (HF) diet-fed group (the energy content of the HF diet was 5.3 kcal/g, containing 13, 60, and 27% of calories from protein, fat, and carbohydrate, respectively). […] Food intake and body weight were monitored weekly from 9 to 20 weeks of age. Mice resistant to the HF diet were withdrawn from the experiment (approximately 10% of mice).
At the age of 20 weeks, mice were placed into separate cages with free access to food and water. The following week, mice were subjected to a 14-day food intake experiment. They were injected with palm-PrRP31 or myr-PrRP20 dissolved in saline at doses of 5 mg/kg (n=10) or saline twice a day (at 8:00 and 18:00) for 14 days. Consumption of the St or HF diet and the weight of the mice were simultaneously followed.
After 14 days of treatment, mice were fasted overnight and sacrificed the following morning. Their blood sera were isolated, and the white adipose tissue (subcutaneous, abdominal, and gonadal), and the liver of all mice were dissected, weighed, and stored at −70° C. Fat to body weight ratio was calculated as a ratio of adipose tissue weight to body weight.
Serum insulin and leptin concentrations were measured by RIA assays. Serum glucose levels were measured using a Glucocard glucometer (Arkray, Kyoto, Japan). Serum triglyceride levels were measured by quantitative enzymatic reactions (Sigma, St. Louis, USA).
They were analyzed by a one-way ANOVA followed by a Dunnett post-hoc test (metabolic parameters, behavioral study) or two-way ANOVA followed by a Bonferroni post-hoc test (body weight evaluation) using Graph-Pad Software (San Diego, Calif., USA). P<0.05 was considered statistically significant.

[4] = 5 mg/kg SC twice a day, 14 days, 17 h fasted DIO male mice
[5] = serum, 5 mg/kg SC twice a day, 14 days, 17 h fasted DIO male mice

Molecule	Food intake in mice (5 mg/kg SC) % saline-treated group (45 min) [1]	Ki [2]	Fat/body weight [%] [3, 4]	Liver/body weight [%] [3, 4]	Body weight of DIO mice ([3]; 5 mg/kg SC twice per day for 14 days, FIG. 9)	Glucose [3, 5]	Insulin [3, 5]	Leptin [3, 5]	Triglycerides [3, 5]
CCCCCCCCCC(=O)N[C@H](C(=O)N1CCC[C@H]1C(=O)N[C@@H](CC(=O)O)C(=O)N[C@H](C(=O)N[C@@H](CC(N)=O)C(=O)N1CCC[C@H]1C(=O)N[C@@H](C)C(=O)N[C@@H](Cc1c[nH]c2ccccc12)C(=O)N[C@@H](Cc1ccc(O)cc1)C(=O)N[C@@H](C)C(=O)N[C@@H](CO)C(=O)N[C@@H](CCCNC(=N)N)C(=O)NCC(=O)N[C@H](C(=O)N[C@@H](CCCNC(=N)N)C(=O)N1CCC[C@H]1C(=O)N[C@H](C(=O)NCC(=O)N[C@@H](CCCNC(=N)N)C(=O)N[C@@H](Cc1ccccc1)C(N)=O)C(C)C)[C@@H](C)CC)[C@@H](C)CC)[C@@H](C)O [Analog 53] (Decanoyl-TPDINPAWYASRGIRPVGRF-NH2)	100%	2.41 ± 0.26 nM							
Myr-PrRP20: myristoylated PrRP20 given to DIO mice; analog number (rat 10 or human 13/55) not stated (Myristoyl-TPDINPAWYASRGIRPVGRF-NH2; ends and bridges not checked; UniProt P81277 34-53, looked up)			15.30 ± 0.42%	3.60 ± 0.18 %	significantly decreased	7.52 ± 0.16 mmol/L	3.54 ± 0.47 ng/mL	39.56 ± 3.47 ng/mL	68.71 ± 4.16 mg/dL
